In PubChem BioAssay AID328 (DTP/NCI, 2004):
Where “and” joins values, the source holds several entries; their conditions need not be identical. Equal values may be shown once. Inconclusive results and toxic doses are left out. How the source made its calls: active means survival T/C of 150% or more; inactive means T/C below 125% in these data.

Tested on: BDF1 mice, P388 leukemia ip, median survival T/C
Test: NCI In Vivo Anticancer Drug Screen. Data for tumor model P388 Leukemia (intraperitoneal) in B6D2F1 (BDF1) mice
Conditions: endpoint: median survival time, higher = longer survival
In short: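 Each value expresses how treatment altered survival: treated-mouse outcome over vehicle-mouse outcome, both groups bearing the transplanted tumour.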

[1] = dose: 50.0 mg/kg/injection, schedule: Q01DX009 (ip), vehicle: saline with Tween-80
[2] = dose: 50.0 mg/kg/injection, schedule: Q04DX003 (ip), vehicle: saline with Tween-80
[3] = dose: 100.0 mg/kg/injection, schedule: Q01DX009 (ip), vehicle: saline with Tween-80
[4] = dose: 200.0 mg/kg/injection, schedule: Q01DX009 (ip), vehicle: saline with Tween-80
[5] = dose: 100.0 mg/kg/injection, schedule: Q04DX003 (ip), vehicle: saline
[6] = dose: 200.0 mg/kg/injection, schedule: Q04DX003 (ip), vehicle: saline
[7] = dose: 400.0 mg/kg/injection, schedule: Q04DX003 (ip), vehicle: saline
[8] = dose: 100.0 mg/kg/injection, schedule: Q01DX009 (ip), vehicle: saline
[9] = dose: 100.0 mg/kg/injection, schedule: Q01DX001 (ip), vehicle: saline with Tween-80
[10] = dose: 200.0 mg/kg/injection, schedule: Q01DX001 (ip), vehicle: saline with Tween-80
[11] = dose: 400.0 mg/kg/injection, schedule: Q01DX001 (ip), vehicle: saline with Tween-80
[12] = dose: 25.0 mg/kg/injection, schedule: Q01DX009 (ip), vehicle: water
[13] = dose: 50.0 mg/kg/injection, schedule: Q01DX009 (ip), vehicle: water
[14] = dose: 50.0 mg/kg/injection, schedule: Q04DX003 (ip), vehicle: water
[15] = dose: 100.0 mg/kg/injection, schedule: Q01DX009 (ip), vehicle: water
[16] = dose: 100.0 mg/kg/injection, schedule: Q04DX003 (ip), vehicle: water
[17] = dose: 200.0 mg/kg/injection, schedule: Q01DX009 (ip), vehicle: water
[18] = dose: 200.0 mg/kg/injection, schedule: Q04DX003 (ip), vehicle: water
[19] = dose: 400.0 mg/kg/injection, schedule: Q01DX009 (ip), vehicle: water
[20] = dose: 400.0 mg/kg/injection, schedule: Q04DX003 (ip), vehicle: water

Measured: T/C

O=C1OC(c2ccccc2)=C/C1=C/c1ccc([N+](=O)[O-])cc1
inactive: dose: 25.0 mg/kg/injection, schedule: Q01DX009 (ip), vehicle: saline with Tween-80 104 % of control | [1] 90 % of control | [2] 105 % of control | [3] 100 % of control | dose: 100.0 mg/kg/injection, schedule: Q04DX003 (ip), vehicle: saline with Tween-80 109 % of control | [4] 92 % of control | dose: 200.0 mg/kg/injection, schedule: Q04DX003 (ip), vehicle: saline with Tween-80 99 % of control and 104 % of control | dose: 300.0 mg/kg/injection, schedule: Q04DX003 (ip), vehicle: saline with Tween-80 87 % of control | dose: 400.0 mg/kg/injection, schedule: Q01DX009 (ip), vehicle: saline with Tween-80 92 % of control | dose: 400.0 mg/kg/injection, schedule: Q04DX003 (ip), vehicle: saline with Tween-80 96 % of control | dose: 600.0 mg/kg/injection, schedule: Q04DX003 (ip), vehicle: saline with Tween-80 91 % of control

CC1=CC(=O)OC(C)(C)C1
inactive: [5] 100 % of control | [6] 100 % of control | [7] 100 % of control

NC(=O)N(CCO)CCO
inactive: [8] 100 % of control | [5] 100 % of control | dose: 200.0 mg/kg/injection, schedule: Q01DX009 (ip), vehicle: saline 90 % of control | [6] 100 % of control | dose: 400.0 mg/kg/injection, schedule: Q01DX009 (ip), vehicle: saline 100 % of control | [7] 100 % of control

CCn1c2ccc([N+](=O)[O-])cc2c2c([N+](=O)[O-])cccc21
inactive: [9] 110 % of control | [10] 100 % of control | [11] 94 % of control

CC(C)C1=CC2=CC(=O)C3C(C)(C)CCCC3(C)C2=C(O)C1=O (stereo not given)
inactive: dose: 2.0 mg/kg/injection, schedule: Q01DX010 (ip), vehicle: carboxymethylcellulose (CMC) 105 % of control | dose: 5.0 mg/kg/injection, schedule: Q01DX010 (ip), vehicle: carboxymethylcellulose (CMC) 105 % of control | dose: 5.0 mg/kg/injection, schedule: Q01DX010 (ip), vehicle: other 115 % of control | dose: 10.0 mg/kg/injection, schedule: Q01DX010 (ip), vehicle: carboxymethylcellulose (CMC) 100 % of control | dose: 10.0 mg/kg/injection, schedule: Q01DX010 (ip), vehicle: other 115 % of control | dose: 20.0 mg/kg/injection, schedule: Q01DX010 (ip), vehicle: carboxymethylcellulose (CMC) 120 % of control

CCCC(O)C(NC(=O)CCl)C(=O)O (stereo not given)
inactive: dose: 125.0 mg/kg/injection, schedule: Q01DX005 (ip), vehicle: other 104 % of control | dose: 250.0 mg/kg/injection, schedule: Q01DX005 (ip), vehicle: other 104 % of control

CN=C(N)c1ccc(N=C(N)c2ccc(-c3ccc(C(N)=Nc4ccc(C(N)=NC)cc4)cc3)cc2)cc1
inactive: dose: 3.0 mg/kg/injection, schedule: Q04DX003 (ip), vehicle: saline 118 % of control | dose: 3.12 mg/kg/injection, schedule: Q01DX009 (ip), vehicle: saline 123 % of control | dose: 5.5 mg/kg/injection, schedule: Q01DX009 (ip), vehicle: saline 121 % of control | dose: 6.0 mg/kg/injection, schedule: Q04DX003 (ip), vehicle: saline 118 % of control | dose: 12.0 mg/kg/injection, schedule: Q04DX003 (ip), vehicle: saline 122 % of control | dose: 12.5 mg/kg/injection, schedule: Q04DX003 (ip), vehicle: saline 115 % of control | dose: 18.0 mg/kg/injection, schedule: Q01DX009 (ip), vehicle: saline 96 % of control

CC(=O)Nc1ccc2[nH]c(C)cc(=O)c2c1
inactive: [12] 94 % of control | [13] 94 % of control | [14] 101 % of control | [15] 92 % of control | [16] 106 % of control | [17] 91 % of control | [18] 95 % of control | [19] 92 % of control | [20] 113 % of control

Cn1cc(C=O)c2nccnc21
inactive: dose: 0.78 mg/kg/injection, schedule: Q01DX009 (ip), vehicle: saline 92 % of control | dose: 1.56 mg/kg/injection, schedule: Q01DX009 (ip), vehicle: saline 112 % of control | dose: 6.25 mg/kg/injection, schedule: Q01DX009 (ip), vehicle: saline 91 % of control | dose: 12.5 mg/kg/injection, schedule: Q01DX009 (ip), vehicle: saline 86 % of control | [3] 117 % of control | [8] 108 % of control

COC(=O)C(CC(O)c1ccccc1)N1CCOCC1 (stereo not given)
inactive: [9] 100 % of control | [10] 100 % of control | [11] 100 % of control

O=C(O)C1CC[N-]CC1.O=C(O)C1CC[N-]CC1.[NH2-].[NH2-].[Pt+4]
inactive: [13] 96 % of control | [15] 96 % of control | [19] 113 % of control

CC(=O)n1ncc2ccc(N)cc21
inactive: [12] 94 % of control | [13] 96 % of control | [14] 103 % of control | [15] 102 % of control | [16] 103 % of control | [17] 99 % of control | [18] 101 % of control | [20] 120 % of control

c1ccc(COC2CN3CCC2CC3)cc1 (stereo not given)
inactive: dose: 25.0 mg/kg/injection, schedule: Q04DX003 (ip), vehicle: saline with Tween-80 122 % of control | [2] 100 % of control

O=C=Nc1ccc(CCc2ccc(N=C=O)cc2)cc1
inactive: [1] 110 % of control | [3] 120 % of control

CCCCCCC#CC(=O)O
inactive: [1] 100 % of control | dose: 50.0 mg/kg/injection, schedule: Q01DX009 (sc), vehicle: olive oil, sesame oil, peanut oil 96 % of control | [3] 98 % of control | dose: 100.0 mg/kg/injection, schedule: Q01DX009 (sc), vehicle: olive oil, sesame oil, peanut oil 96 % of control | dose: 100.0 mg/kg/injection, schedule: Q04DX003 (sc), vehicle: olive oil, sesame oil, peanut oil 100 % of control | [4] 116 % of control | dose: 200.0 mg/kg/injection, schedule: Q01DX009 (sc), vehicle: olive oil, sesame oil, peanut oil 92 % of control | dose: 200.0 mg/kg/injection, schedule: Q04DX003 (sc), vehicle: olive oil, sesame oil, peanut oil 96 % of control

CCOC(=O)Cc1csc2nc(-c3ccccc3)nn12
inactive: [1] 106 % of control | [3] 108 % of control | [4] 115 % of control

S=C1SCN(Cc2cccs2)CN1Cc1cccs1
inactive: dose: 50.0 mg/kg/injection, schedule: Q01DX005 (ip), vehicle: saline with Tween-80 99 % of control | dose: 100.0 mg/kg/injection, schedule: Q01DX005 (ip), vehicle: saline with Tween-80 87 % of control | dose: 200.0 mg/kg/injection, schedule: Q01DX005 (ip), vehicle: saline with Tween-80 95 % of control
